Results on eight substances are retold here after patent publication US20090258381A1, “Methods for Determining the Cleavability of Substrates” (priority 2005, published 2009).

For series [1], the target named is trypsin. As to the kind of experiment: Inhibition of enzymatic conversion of GPARLA by trypsin. In kind it is biochemical. To be noted: degradation of substrate GPARLA by trypsin; geometric mean and standard deviation of a quadruplicate measurement; read-out: inhibition constant. The procedure: (§1) Inhibition constants were measured by carrying out two parallel enzyme dilutions in each case. One enzyme dilution was carried out in the presence, and the other enzyme dilution in the absence, of the protease inhibitor aprotinin. […] The peptide chosen for the trypsin enzyme had the amino acid sequence GPARLA (number 42 from example 1) and the peptide chosen for the chymotrypsin enzyme had the sequence GVPFGP (number 43 from example 1). […] Then, to carry out the proteolytic cleavage in the presence of an inhibitor, 7.5 μl of an aprotinin solution (1 μg/ml for trypsin and 1 mg/ml for chymotrypsin) were put into the first well, and 5 μl of the aprotinin solution (1 μg/ml for trypsin and 1 mg/ml for chymotrypsin) were put into each of the next 10 wells. […] No enzyme solution was put in the last peptide-containing well.
(§2) The inhibition constant of aprotinin can be calculated by comparing the catalytic efficiency (kcat/KM) in the presence and in the absence of aprotinin. kcat/KM values are calculated according to equation (6) and the relationship obtained (equation (17)):
(§3) (kcat/KM)0/(kcat/KM)=1+[I]total/Ki

The target in series [2] is chymotrypsin. Nature of the series: Inhibition of enzymatic conversion of GVPFGP by chymotrypsin. In kind it is biochemical. The following applies: degradation of GVPFGP by chymotrypsin; geometric mean and standard deviation of a quadruplicate measurement; read-out: inhibition constant. The procedure: as §1, §2, §3
Series [3] in a line: Half-lives of peptides in murine intestinal fluid (intestinal enzyme solution). The following applies: relates to undiluted murine intestinal fluid, 90 min incubation in dilutions, 37° C. The method, then: Anesthetized female Balb/c mice were sacrificed by cervical dislocation and their abdominal wall was opened. The small bowel was clamped with a hemostat behind the stomach outlet (proximal end) and severed from the stomach. The small bowel was exposed and clamped with a second hemostat near the posterior (distal) end. The bowel was severed a second time behind this point.
The subsequent preparation steps to obtain the digestive secretions were performed on an ice-cooled surface. The small bowel closed on both sides was agitated in ice-cold simulated intestinal fluid (SIF; 8 mM phosphate, pH 7.2, with 4.6 mM K^+, 111.3 mM Na^+, 101.5 mM Cl) according to Lockwood and Randall (1949), which was intended to imitate as accurately as possible the physiological conditions of the small bowel in terms of ion concentrations, in order to remove external contaminants and keep it moist. To obtain the digestive secretions present in the small bowel, the distal end of the bowel was suspended in a reaction vessel and the hemostat attached on this side was removed. A lateral cut was then made at the proximal end of the bowel so that a syringe provided with a button cannula could be introduced into the bowel which was held without tension. The bowel contents were washed out in three steps. The washing solutions were successively injected slowly into the bowel and collected at the lower end of the bowel separately in three reaction vessels. Firstly, the bowel was rinsed with a volume of 6 ml of perfluorohexane, an inert liquid which is immiscible with water, and the perfluorohexane was driven out with 4 ml of air. Then a mixture of 2.25 ml of perfluorohexane and 0.25 ml of SIF which contained the nonphysiological ions Li^+ and Cs^+, was used for washing in order to be able subsequently to determine the dilution by spectroscopic methods. […] In a third washing step, 5 ml of SIF without tracer were injected. Solid constituents of the bowel contents and the perfluorohexane were separated by centrifugation from the aqueous phase, in which the digestive enzymes were present. An inductively coupled plasma mass spectrometry (ICP-MS) was used to determine the concentrations of Li^+ and Cs^+ in the intestinal enzyme solution, and the dilution factor was calculated taking the volume of the washing buffer into account. The dilution of the third lavage was ascertained via endogenous markers of intestinal secretion (e.g. enzymic activities, immunoglobulins), in comparison with the first two intestinal enzyme solutions. The enzyme solutions were stored after freezing with liquid nitrogen at −70° C.
On a polypropylene microtiter plate having the same format as the coated polystyrene microtiter plate (see example 4), 7.5 μl of peptide solution were introduced into the first well of a row, and 5 μl of the peptide solution were introduced into each of the next 10 wells. The last well remained empty and was intended to serve as background correction. Then, simulated intestinal fluid (SIF) with the addition of 0.005% Tween 20 and 1 mM CaCl (SIFT-CaCl) was put in all the wells. The well with 7.5 μl of peptide solution received 60 μl of SIFT-CaCl, and the wells with 5 μl of peptide solution each received 45 μl of SIFT-CaCl. The empty well for the background correction received 50 μl of SIFT-CaCl. The enzymatic reaction was then started by adding 7.5 μl of a dilution of an intestinal enzyme solution (obtained as in example 2) to the well with 7.5 μl of peptide solution and 60 μl of SIFT-CaCl. 25 μl of this mixture were immediately pipetted into the next well and mixed, and this step was repeated to result in a serial 1:3 dilution of the intestinal enzyme solution over a total of 10 wells. No enzyme solution was put into the last peptide-containing well. Each well thus contained a volume of 50 μl after the serial dilution.

In series [4] the test system is trypsin. To be noted: cleaved with trypsin; FRET-based methods (Grahn et al., 1998); cited from earlier work.

Regarding aprotinin, the Ki in series [1] came to 1 nM; in series [2], 480 nM.
In the case of FGDSIEAQCGTSVNVH, in series [3] (16-mer peptides), the t1/2 came to 1.3951 s.
Consider “GPARLAIG [GPARLAIG variant of the trypsin substrate, measured with FRET-based methods (Grahn et al., 1998)]”, for which, in series [4], the catalytic efficiency is 1.2e+06 M⁻¹ s⁻¹.
VVGSAEAGVD had a t1/2 in series [3] (10-mer peptides) of 4.0618 s.
KLPGFGDSIEAQCGTS yielded a t1/2 in series [3] (16-mer peptides) of 6.4211 s.
In series [3] (10-mer peptides), GSAEAGVDAA had a t1/2 of 3.1271 s.
For the substance FDKLPGFGDSIEAQCG, the t1/2 in series [3] (16-mer peptides) was 5.6930 s.
Still for that read-out and setting: with PGFGDSIEAQCGTSVN the figure was 5.0348 s.
